ChEMBL document CHEMBL1154501, “2/4-Substituted-9-fluorenones and their O-glucosides as potential immunomodulators and anti-herpes simplex virus-2 agents. Part 5” (Eur J Med Chem, 2008)

What was measured:
[1] = tested on: PBMC; assay: Induction of TNFalpha release in human PBMC at 20 ug/mL after 48 hrs by ELISA; format: functional
[2] = tested on: PBMC; assay: Induction of IFNalpha release in human PBMC at 20 ug/mL after 48 hrs by ELISA; format: functional
[3] = tested on: PBMC; assay: Cytotoxicity against human PBMC at 20 ug/mL after 48 hrs by MTT assay; format: cell-based
[4] = tested on: PBMC; assay: Cytotoxicity against human PBMC at 40 ug/mL after 48 hrs by MTT assay; format: cell-based
[5] = tested on: PBMC; assay: Cytotoxicity against human PBMC at 60 ug/mL after 48 hrs by MTT assay; format: cell-based
[6] = tested on: PBMC; assay: Induction of IFNalpha release in human PBMC at 20 ug/mL after 24 hrs by ELISA; format: functional
[7] = tested on: PBMC; assay: Induction of TNFalpha release in human PBMC at 20 ug/mL after 24 hrs by ELISA; format: functional
[8] = tested on: Human alphaherpesvirus 2; assay: Antiviral activity against HSV2 in human PBMC assessed as inhibition of viral replication at 20 ug/mL; format: functional
[9] = tested on: PBMC; assay: Induction of IFNalpha release in human PBMC at 40 ug/mL after 24 hrs by ELISA; format: functional
[10] = tested on: Human alphaherpesvirus 2; assay: Antiviral activity against HSV2 in human PBMC assessed as inhibition of viral replication at 40 ug/mL; format: functional
[11] = tested on: PBMC; assay: Induction of TNFalpha release in human PBMC at 40 ug/mL after 24 hrs by ELISA; format: functional
[12] = tested on: PBMC; assay: Induction of IFNalpha release in human PBMC at 40 ug/mL after 48 hrs by ELISA; format: functional
[13] = tested on: PBMC; assay: Induction of TNFalpha release in human PBMC at 40 ug/mL after 48 hrs by ELISA; format: functional

SMILES | Activity [1] [pg/mL] | Activity [2] [pg/mL] | Activity [3] [%] | Activity [4] [%] | Activity [5] [%] | Activity [6] [pg/mL] | Activity [7] [pg/mL] | PFU/ml [8] | Activity [9] [pg/mL] | PFU/ml [10] | Activity [11] [pg/mL] | Activity [12] [pg/mL] | Activity [13] [pg/mL]
O=C(OCCCCO[C@H]1O[C@H](CO[C@H]2O[C@H](CO[C@H]3O[C@H](CO)[C@@H](O)[C@H](O)[C@H]3O)[C@@H](O)[C@H](O)[C@H]2O)[C@@H](O)[C@H](O)[C@H]1O)c1cccc2c1-c1ccccc1C2=O | 9 | 14 | 0 | 19 | 42 | <4.8 | <5.8 | 70000 | – | – | – | – | –
O=C(OCCCCO[C@@H]1O[C@H](CO)[C@@H](O[C@H]2O[C@H](CO)[C@@H](O)[C@H](O)[C@H]2O)[C@H](O)[C@H]1O)c1cccc2c1-c1ccccc1C2=O | – | – | 26 | 37 | 69 | – | – | – | – | – | – | – | –
O=C(NCCO)c1ccc2c(c1)C(=O)c1ccccc1-2 | 13 | 11 | 0 | 0 | 2 | <4.8 | <5.8 | 48000 | 9 | 37000 | 14 | 29 | 36
O=C(OCCO)c1cccc2c1-c1ccccc1C2=O | 21 | 16 | 0 | 6 | 14 | <4.8 | <5.8 | 58000 | – | – | – | – | –
O=C(OCCCO)c1cccc2c1-c1ccccc1C2=O | 11 | 8 | 0 | 22 | 41 | <4.8 | <5.8 | 60000 | – | – | – | – | –
O=C(OCCCCO)c1cccc2c1-c1ccccc1C2=O | 6 | 12 | 0 | 21 | 38 | <4.8 | <5.8 | 71000 | – | – | – | – | –
O=C(OCCCCO[C@H]1O[C@H](CO)[C@@H](O)[C@H](O)[C@H]1O)c1cccc2c1-c1ccccc1C2=O | – | – | 22 | 38 | 57 | – | – | – | – | – | – | – | –
O=C(OCCCCO[C@@H]1O[C@H](CO)[C@@H](O)[C@H](O)[C@H]1O)c1cccc2c1-c1ccccc1C2=O | 18 | 10 | 0 | 0 | 7 | <4.8 | <5.8 | 78000 | <4.8 | 36000 | <5.8 | 29 | 30
O=C(NCCCCO)c1ccc2c(c1)C(=O)c1ccccc1-2 | – | – | 20 | 28 | 45 | – | – | – | – | – | – | – | –
O=C(NCCCO)c1ccc2c(c1)C(=O)c1ccccc1-2 | 40 | 7 | 0 | 0 | 15 | <4.8 | <5.8 | 6500 | 13 | 4100 | 27 | 37 | 51
O=C(NCCOCCO)c1ccc2c(c1)C(=O)c1ccccc1-2 | 17 | 21 | 0 | 0 | 4 | <4.8 | <5.8 | 5300 | 6 | 3900 | 24 | 38 | 48
CC(O)CNC(=O)c1ccc2c(c1)C(=O)c1ccccc1-2 (stereo unspecified) | 20 | 18 | 0 | 0 | 5 | <4.8 | <5.8 | 6000 | 21 | 3500 | 14 | 45 | 33
O=C(NCCOCCO[C@H]1O[C@H](CO)[C@@H](O)[C@H](O)[C@H]1O)c1ccc2c(c1)C(=O)c1ccccc1-2 | 14 | 17 | 0 | 0 | 16 | <4.8 | <5.8 | 60000 | <4.8 | 34000 | <5.8 | 31 | 30
O=C(OCCCCO[C@@H]1O[C@H](CO[C@H]2O[C@H](CO)[C@@H](O)[C@H](O)[C@H]2O)[C@@H](O)[C@H](O)[C@H]1O)c1cccc2c1-c1ccccc1C2=O | 15 | 9 | 0 | 29 | 52 | <4.8 | <5.8 | 68000 | – | – | – | – | –
O=C(NCCOCCO[C@@H]1O[C@H](CO)[C@@H](O[C@H]2O[C@H](CO)[C@@H](O)[C@H](O)[C@H]2O)[C@H](O)[C@H]1O)c1ccc2c(c1)C(=O)c1ccccc1-2 | 18 | 10 | 0 | 0 | 18 | <4.8 | <5.8 | 53000 | <4.8 | 32000 | <5.8 | 30 | 27
O=C(NCCOCCO[C@@H]1O[C@H](CO)[C@@H](O)[C@H](O)[C@H]1O)c1ccc2c(c1)C(=O)c1ccccc1-2 | 31 | 17 | 0 | 0 | 6 | <4.8 | 9 | 49000 | 8 | 36000 | 13 | 31 | 39
O=C(NCCOCCOC1O[C@H](COC2O[C@H](CO)[C@@H](O)[C@H](O)[C@H]2O)[C@@H](O)[C@H](O)[C@H]1O)c1ccc2c(c1)C(=O)c1ccccc1-2 (single isomer, unassigned) | 16 | 14 | 0 | 0 | 21 | <4.8 | <5.8 | 42000 | <4.8 | 35000 | <5.8 | 25 | 21
